Measurements as given in ChEMBL document CHEMBL5674860, “Optimized Dual-Glo Assay to identify co-culture-induced drug vulnerabilities in 3D CRC models” (2024).

Legend:
Assay type in all cases: functional, Homo sapiens
Set-up in all cases: dose or concentration left out as unconfirmed
Colon cancer organoid [1] = test: Optimized Dual-Glo assay to identify co-culture induced drug vulnerabilities using donated chemical probes and chemogenomics kinase set in O14 CRC organoid and F14 CAF mono and co-culture. […] Cell viability is reported both mono and co-culture models.
Colon cancer organoid [2] = test: Optimized Dual-Glo assay to identify co-culture induced drug vulnerabilities using donated chemical probes and chemogenomics kinase set in O06 CRC organoid and F06 CAF mono and co-culture. […] Cell viability is reported both mono and co-culture models.
Colon cancer organoid [3] = test: Optimized Dual-Glo assay to identify co-culture induced drug vulnerabilities using donated chemical probes and chemogenomics kinase set in O20 CRC organoid and F20 CAF mono and co-culture. […] Cell viability is reported both mono and co-culture models.
[4] = Culture type Co-Culture, Transduced with Lucferase2-P2A-EGFP lentivirus
[5] = Culture type Co-Culture, Transduced with Renilla-dsRed lentivirus
[6] = Culture type Mono-Culture, Transduced with Lucferase2-P2A-EGFP lentivirus
[7] = Culture type Mono-Culture, Transduced with Renilla-dsRed lentivirus

SMILES | Cell Viability (Colon cancer organoid [1]; [4]) [%] | Cell Viability (Colon cancer organoid [1]; [5]) [%] | Cell Viability (Colon cancer organoid [1]; [6]) [%] | Cell Viability (Colon cancer organoid [1]; [7]) [%] | Cell Viability (Colon cancer organoid [2]; [4]) [%] | Cell Viability (Colon cancer organoid [2]; [5]) [%] | Cell Viability (Colon cancer organoid [2]; [6]) [%] | Cell Viability (Colon cancer organoid [2]; [7]) [%] | Cell Viability (Colon cancer organoid [3]; [4]) [%] | Cell Viability (Colon cancer organoid [3]; [5]) [%] | Cell Viability (Colon cancer organoid [3]; [6]) [%] | Cell Viability (Colon cancer organoid [3]; [7]) [%]
O=C(c1ccc(C(=O)N2CCC(N3CCCC3)CC2)c(Nc2ccccc2)c1)N1CCC(N2CCCC2)CC1 | 102.524 | 98.4049 | 104.115 | 98.5481 | 108.091 | 96.0319 | 93.2966 | 98.6037 | 128.422 | 96.2949 | 123.486 | 97.1366
CC(C)N(CCCNC(=O)Nc1ccc(C(C)(C)C)cc1)C[C@H]1O[C@@H](n2cc(Br)c3c(N)ncnc32)[C@H](O)[C@@H]1O | 69.7796 | 119.823 | 60.0766 | 78.3641 | 62.4885 | 97.8527 | 76.7332 | 88.3272 | 59.1388 | 110.156 | 82.1777 | 84.781
CCOC(=O)CCNc1cc(N2CCc3ccccc3CC2)nc(-c2ccccn2)n1 | 81.7654 | 97.685 | 98.6348 | 109.679 | 103.039 | 116.98 | 128.06 | 112.043 | 100.893 | 127.032 | 66.9069 | 85.0003
O=C(O)CNC(=O)c1c(O)c2ccccc2n(Cc2ccccc2)c1=O | 94.5212 | 101.447 | 96.8462 | 89.4149 | 145.736 | 124.036 | 103.118 | 94.3602 | 96.4355 | 149.859 | 78.6397 | 102.057
CCCOc1ccn2c(C(C)=O)cc(-c3ccccc3S(C)(=O)=O)c2c1 | 117.77 | 112.498 | 105.54 | 97.3869 | 121.922 | 129.269 | 172.982 | 130.382 | 148.391 | 117.742 | 112.445 | 111.137
Cc1cc(=O)n(C)c2cc(N3C(=O)CC[C@H](NS(=O)(=O)CC(C)C)[C@H]3c3ccc(Cl)cc3)ccc12 | 75.0892 | 148.008 | 105.721 | 116.483 | 117.914 | 167.751 | 110.238 | 116.926 | 107.11 | 166.434 | 116.867 | 106.138
CCN(C(=O)CO)[C@H]1CN(/C(=N\C#N)Nc2cccc(OC(F)F)c2)N=C1c1ccc(Cl)c(Cl)c1 | 96.421 | 116.48 | 90.9581 | 97.9735 | 100.328 | 102.729 | 73.2581 | 127.729 | 98.0443 | 141.776 | 125.834 | 95.5224
Nc1ncnc2c1ccn2[C@@H]1O[C@H]([C@H](O)c2ccccc2)[C@@H](O)[C@H]1O | 19.223 | 140.259 | 27.9797 | 80.8035 | 22.7938 | 108.338 | 39.3105 | 99.7719 | 28.437 | 179.519 | 41.1766 | 89.3267
COc1cc(N(C)c2ccnc3ccc(C(F)(F)F)cc23)cc(OC)c1OC | 114.205 | 95.5273 | 120.439 | 84.9016 | 161.309 | 161.036 | 102.201 | 116.943 | 76.7382 | 110.267 | 123.073 | 118.477
CNCCN1CCC(c2cc(CN(C)C(=O)c3cccc(Oc4ccccc4)c3)ccn2)CC1 | 99.3221 | 120.381 | 93.8948 | 118.528 | 83.6812 | 129.007 | 98.3617 | 135.689 | 67.0647 | 133.473 | 86.7663 | 93.4663
COc1c(C)cc(NC(=O)c2nn(Cc3ccc(F)cc3)c3c2CN(C(=O)c2ccc[nH]2)C[C@]3(C)C(N)=O)cc1C | 89.068 | 129.679 | 87.8638 | 102.007 | 66.5012 | 112.674 | 87.4341 | 110.624 | 106.451 | 95.1299 | 138.387 | 102.921
Cc1nnc2c3ccccc3c(N[C@@H](C)[C@H](c3ccccc3)N(C)C)nn12 | 89.8317 | 122.44 | 117.177 | 107.176 | 95.7989 | 115.114 | 100.296 | 129.772 | 82.0862 | 127.368 | 95.9209 | 100.184
C[C@H]1CC(=O)Nc2cc(C(=O)NCCC3CC3)ccc2N1C(=O)N1CC2CC2C1 (stereo partly drawn) | 72.2289 | 101.41 | 80.5063 | 95.2313 | 115.835 | 132.849 | 119.799 | 120.051 | 105.905 | 112.87 | 104.527 | 89.0255
COc1cc(C(=O)N2CC[C@@H](O)[C@@H](N)C2)cc2nc(-c3cc4ccccc4n3CC3CC3)n(C)c12.Cl | 132.512 | 122.105 | 79.0484 | 89.8768 | 124.227 | 121.721 | 98.6493 | 122.476 | 98.8385 | 114.018 | 83.2381 | 78.6997
